Drawing on PubChem BioAssay AID788 (SRMLSC, 2007), this text covers IC50 for 67 molecules.

pIC50: −log10 of the molar value. Active and inactive are the calls of the source. The rule behind the calls is not given here. A value given as a limit tells only on which side of the number the result lay.

Test [1] relates to S. cerevisiae wild-type background strain growth inhibition. Briefly: growth inhibition of vps1Δ apl2Δ yeast, dose response, post-Golgi transport modulator project, S. cerevisiae, background strain comparison (AID 788). Conditions: S. cerevisiae vps1Δ apl2Δ growth inhibition, dose response; measured here: wild-type background strain growth.
For test [2], the system named is S. cerevisiae vps1Δ apl2Δ growth inhibition, dose response. Described as above.

The term pIC50 denotes −log10 of the IC50, conventionally taken in molar units. In the case of `Cc1nnc(-c2cccc(Br)c2)c2cn(-c3ccccc3Cl)nc12`, the pIC50 in test [1] was 4.59; in test [2] it was 5.56.
Broadly, the IC50 is the concentration at which inhibition is half-maximal. As for `ON=Cc1cccn1-c1ccccc1`, in test [1], the pIC50 was less than 5.00. For the same molecule, the IC50 in test [2] was > 10 µM (inactive).
The molecule `Cc1cccc(CS(=O)(=O)Cc2ccc(C(=O)NCCCN3CCCC3)o2)c1` gave a pIC50 in test [1] of less than 5.00. For the same molecule, in test [2], the IC50 is > 10 µM (inactive).
`CCOc1ccc(NC(=O)C/C(N)=N/O)cc1` had a pIC50 in test [1] of less than 5.00. In test [2], the IC50 was > 10 µM (inactive).
Consider `CCCC(=O)N1CCN(c2ccc(NC(=O)c3cc4ccccc4o3)cc2Cl)CC1`, for which the pIC50 in test [1] is 4.72. For the same molecule, the IC50 in test [2] is 20.8 µM (inactive).
Molecule `Cc1cc(Cl)cc(C)c1OCCCCN1CCOCC1` had a pIC50 in test [1] of less than 5.00. Moreover, in test [2], the IC50 is > 10 µM (inactive).
For the molecule `COc1ccc(N2CCN(C(=O)CCNS(=O)(=O)c3ccc(Br)s3)CC2)cc1`, the pIC50 in test [1] is less than 5.00. The IC50 in test [2] is > 10 µM (inactive).
For the molecule `C/C(=N\N=C(/N)SC1CC(=O)N(c2ccc(Cl)c(Cl)c2)C1=O)c1cccs1` (centres undefined), the pIC50 in test [1] was 5.22; in test [2] it was 5.30.
Turning to `Cc1cc(C)c2c(c1)/C(=C/C(=O)c1ccc(Br)s1)C(=O)N2`, in test [1], the pIC50 was 5.85. Besides, the IC50 in test [2] is 2.73 µM (inactive).
For the molecule `CCN(CC)c1ccc(-c2nc3cnccc3n2C)cc1`, the pIC50 in test [1] was less than 5.00. In addition, the IC50 in test [2] was > 10 µM (inactive).
In the case of `C=CCc1ccc(OCC(O)CN2CCC(Cc3ccccc3)CC2)c(OC)c1` (centres undefined), the negative logarithm of the IC50 (pIC50) in test [1] is 4.72; in test [2], 5.38.
The corresponding values for `CCOC(=O)COc1ccccc1C1Nc2ccccc2C(=O)N1c1cccc(Cl)c1` (centres undefined) are less than 5.00 and 4.71.
The molecule `Clc1ccc(-c2cnc(Oc3ccccc3)nc2)cc1` had a pIC50 in test [1] of less than 5.00. The IC50 in test [2] is > 10 µM (inactive).
Turning to `O=C(c1ccco1)N1CCN(c2ncnc3c2[nH]c2ccccc23)CC1`, the pIC50 in test [1] is less than 5.00. In test [2], the IC50 was > 10 µM (inactive).
For `N#CC1=C(N)NC(SCc2ccc(F)cc2)=C(C#N)C12CCCCC2`, the pIC50 in test [1] was 4.79; in test [2] it was 5.31.
On to `Fc1ccc(Cn2nnc(-c3ccc(CN4CCOCC4)cc3)n2)cc1`, for which the results for the pIC50 in test [1] and in test [2] were less than 5.00 and 5.29, respectively.
Take `CN1CCN(CCCNC(=O)Cn2nc(-c3ccccc3)ccc2=O)CC1`: the pIC50 in test [1] is less than 5.00. The IC50 in test [2] is > 10 µM (inactive).
Regarding `COc1ccc(C2=NC(C(F)(F)F)(C(F)(F)F)c3c(n(C)c(=O)n(C)c3=O)N2)cc1`, the pIC50 in test [1] was less than 5.00. Further, the IC50 in test [2] is > 10 µM (inactive).
Molecule `Cc1ccc(-c2csc3nnc(SCC(=O)Nc4cccc(C)n4)n23)cc1` gave a pIC50 in test [1] of less than 5.00. Also, in test [2], the IC50 is > 10 µM (inactive).
Regarding `O=C(CCl)c1ccc(Cc2ncc(C(F)(F)F)cc2Cl)s1`, the pIC50 in test [1] was 5.06. The IC50 in test [2] was 16.2 µM (inactive).
For `CCCC(=O)Nc1ccc(Cl)c(NC(=O)c2cccnc2Cl)c1` the same measures were less than 5.00 and > 10 µM (inactive).
In the case of `Clc1cc(Br)ccc1OCCOCCN1CCOCC1`, the pIC50 in test [1] was less than 5.00; in test [2], 4.69.
As for `COC(=O)c1ccc(NC(=O)c2cn(-c3ccccc3)nc2-c2ccncc2)cc1`, in test [1], the negative-log IC50 (pIC50) is less than 5.00. In addition, the IC50 in test [2] was > 10 µM (inactive).
For `Nc1cc(N)c(OCC(F)(F)F)cc1OCC(F)(F)F` the same measures were less than 5.00 and > 10 µM (inactive).
On to `Cc1ccc(C(=O)OCn2ncc(Cl)c(Cl)c2=O)cc1`, for which the pIC50 in test [1] was 5.34; in test [2], 5.37.
Consider `Cc1nc(NC(=O)c2ccccc2)sc1-c1csc(Nc2ccc(F)cc2)n1`, for which the pIC50 in test [1] was less than 5.00. For the same molecule, the IC50 in test [2] is > 10 µM (inactive).
The corresponding values for `CCCOc1ccccc1N/C(=N/c1nc(C)cc(C)n1)NC(=O)COc1ccc(OC)cc1` are less than 5.00 and > 10 µM (inactive).
`COc1ccc(CN(C(=O)Cc2cccs2)C(C(=O)NC2CCCC2)c2ccncc2)cc1` (centres undefined) showed a pIC50 in test [1] of less than 5.00. Also, in test [2], the IC50 is > 10 µM (inactive).
Take `COc1ccccc1N1CCN(Cc2ccccc2F)CC1`: the negative-log IC50 (pIC50) in test [1] was less than 5.00. The IC50 in test [2] was > 10 µM (inactive).
For the molecule `Cc1ccc(C)c(C(=O)NCc2ccncc2)c1`, in test [1], the pIC50 was less than 5.00. For the same molecule, the IC50 in test [2] was > 10 µM (inactive).
In test [1], `O=C1CC(N2CCN(c3ccc(Cl)c(Cl)c3)CC2)C(=O)N1` (centres undefined) had a pIC50 of less than 5.00. In addition, in test [2], the IC50 was > 10 µM (inactive).
As for `Cc1cccc2cc(C#N)c(NCCCn3ccnc3)nc12`, the pIC50 in test [1] was less than 5.00. In test [2], the IC50 was > 10 µM (inactive).
Turning to `O=C(NCCSCc1ccc(Cl)cc1Cl)c1ccc(CN2CCOCC2)cc1`, the pIC50 in test [1] was less than 5.00; in test [2], 4.87.
In turn, `FC(F)(F)COc1nc(N2CCCCC2)nc(N2CCNCC2)n1` had a pIC50 in test [1] of less than 5.00. Further, in test [2], the IC50 was > 10 µM (inactive).
Turning to `CC(=O)c1ccc(N2CCN(C(=O)c3ccc(Br)cc3)CC2)c(F)c1`, the values for the pIC50 in test [1] and in test [2] were 5.18 and 6.20, respectively.
`CCCCOc1ccc(-c2ncc(C(=O)O)c(C)n2)cc1` gave a pIC50 in test [1] of less than 5.00. Further, the IC50 in test [2] is > 10 µM (inactive).
In test [1], `COc1ccc(C2CC(=O)C3=C(C2)NC(C)=C(C(=O)Nc2ccccc2C)C3c2coc3ccc(C)cc3c2=O)cc1OC` (centres undefined) showed a pIC50 of less than 5.00. For the same molecule, the IC50 in test [2] was > 10 µM (inactive).
In test [1], `O=C(Cn1ncc2c3ccccc3n(Cc3ccccc3F)c2c1=O)N1CCC2(CC1)OCCO2` had a pIC50 of less than 5.00. In addition, the IC50 in test [2] was > 10 µM (inactive).
In turn, `O=C(C1CCN(S(=O)(=O)c2cccs2)CC1)N1CCCCCC1` had a pIC50 in test [1] of less than 5.00. Besides, the IC50 in test [2] is > 10 µM (inactive).
`CC1CC(C)CN(CCOc2ccc(Cl)cc2Cl)C1` (centres undefined): the figures for the pIC50 in test [1] and in test [2] were less than 5.00 and 5.18, respectively.
The molecule `O=C(OCn1ncc(Cl)c(Cl)c1=O)c1cccc(C(F)(F)F)c1` had a pIC50 in test [1] of 5.45. The IC50 in test [2] was 6 µM (inactive).
Turning to `Cc1nn(Cc2cccc(C(=O)NC(C)c3ccc(C(C)(C)C)cc3)c2)c(C)c1[N+](=O)[O-]` (centres undefined), in test [1], the negative logarithm of the IC50 (pIC50) was less than 5.00. Further, the IC50 in test [2] is > 10 µM (inactive).
For `N#CC1=C(N)C(C#N)(C#N)C(c2cccnc2)C2CC(c3ccccc3)CC=C12` (centres undefined), the pIC50 is 5.53 in test [1] and 5.54 in test [2].
For `Cc1cc(C)nc(N/N=C/C(Cl)=C/c2ccccc2)n1`, the pIC50 in test [1] is less than 5.00. Besides, the IC50 in test [2] was > 10 µM (inactive).
For the molecule `Cc1ccc(C)c(NS(=O)(=O)c2cc(C(=O)N3CCc4ccccc4C3)ccc2Cl)c1`, the pIC50 in test [1] is 5.16. Besides, the IC50 in test [2] was 8.09 µM (inactive).
Consider `CCOC(=O)c1ccc(NC(=O)c2ccc(CN3CCOCC3)cc2)cc1`, for which the pIC50 in test [1] was less than 5.00; in test [2], 4.60.
Molecule `CSc1ncccc1C(=O)OCC(=O)N1CCOCC1` showed a pIC50 in test [1] of less than 5.00. Moreover, the IC50 in test [2] is > 10 µM (inactive).
Take `NC(=O)c1ccsc1NC(=O)c1nc(-c2ccccc2)n(-c2ccccc2)n1`: in test [1], the pIC50 was less than 5.00. Further, the IC50 in test [2] is > 10 µM (inactive).
In test [1], `Cc1ccc2cc(CN(CCO)Cc3nnnn3Cc3ccc(F)cc3)c(=O)[nH]c2c1` showed a pIC50 of less than 5.00. In addition, the IC50 in test [2] is > 10 µM (inactive).
The corresponding values for `Cc1cc(N2C(=O)C3CCCN3C2c2sccc2C)no1` (centres undefined) are less than 5.00 and > 10 µM (inactive).
On to `Nc1ccc(Oc2ccc3nc(-c4ccccc4)c(-c4ccccc4)nc3c2)cc1`, for which, in test [1], the pIC50 is 5.92. The IC50 in test [2] was 1.2 µM (inactive).
In turn, `COc1ccc(NC(=S)NC(NC(=O)c2ccc(Cl)cc2Cl)C(Cl)(Cl)Cl)c([N+](=O)[O-])c1` (centres undefined) showed a pIC50 in test [1] of less than 5.00. Moreover, the IC50 in test [2] was > 10 µM (inactive).
For the molecule `CC(C)COC(=O)c1ccc2c(c1O)C(=O)c1ccccc1C2=O`, the pIC50 in test [1] was less than 5.00. Also, the IC50 in test [2] was > 10 µM (inactive).
`CCCc1cc(NCCCCO)n2c(nc3ccccc32)c1C#N` had a pIC50 in test [1] of less than 5.00. Besides, in test [2], the IC50 is > 10 µM (inactive).
On to `O=C(COc1ccc(Br)cc1F)NC1CCN(Cc2ccccc2)CC1`, for which the results for the negative-log IC50 (pIC50) in test [1] and in test [2] were less than 5.00 and 5.52, respectively.
In test [1], `CCN(CC)CCCN(Cc1cc2cc3c(cc2[nH]c1=O)OCCO3)C(=O)Nc1ccc(F)cc1` gave a pIC50 of less than 5.00. For the same molecule, the IC50 in test [2] is > 10 µM (inactive).
Consider `Cc1cccc(OCC(=O)O/N=C(\N)Cc2ccc(Cl)cc2)c1`, for which the pIC50 in test [1] is 4.98. Also, the IC50 in test [2] is > 10 µM (inactive).
On to `O=[N+]([O-])c1ccc(N2CCN(S(=O)(=O)c3ccc(Cl)cc3)CC2)cc1NCc1cccnc1`, for which the pIC50 in test [1] is less than 5.00. Also, the IC50 in test [2] was > 10 µM (inactive).
Take `O=C(NCc1ccc2c(c1)OCO2)c1ccc(CS(=O)(=O)c2cccc(C(F)(F)F)c2)o1`: in test [1], the pIC50 is less than 5.00. Also, the IC50 in test [2] is > 10 µM (inactive).
On to `COc1ccc(N2CCN(c3oc(-c4ccco4)nc3C#N)CC2)cc1`, for which the pIC50 in test [1] was less than 5.00. Further, the IC50 in test [2] was > 10 µM (inactive).
In test [1], `CCOC(=O)C(NC(C)=O)(Nc1ccc(S(=O)(=O)Nc2onc(C)c2C)cc1)C(F)(F)F` (centres undefined) showed a negative logarithm of the IC50 (pIC50) of less than 5.00. In test [2], the IC50 is > 10 µM (inactive).
As to `Clc1ccc2[nH]c3c(NCC4CCCO4)ncnc3c2c1` (centres undefined), the negative-log IC50 (pIC50) in test [1] was less than 5.00. In addition, in test [2], the IC50 was > 10 µM (inactive).
In test [1], `CN1C(=O)/C(=C/c2cccn2-c2ccc3ccccc3c2)C(=O)NC1=S` showed a negative logarithm of the IC50 (pIC50) of 5.18. The IC50 in test [2] was 10.4 µM (inactive).
In test [1], `O=C(NCc1ccc2c(c1)OCO2)c1ccc(-n2cnnn2)cc1` gave a pIC50 of less than 5.00. For the same molecule, the IC50 in test [2] is > 10 µM (inactive).
Molecule `O=C1NC2(Nc3ccccc31)C(=O)Nc1ccccc12` (centres undefined) showed a negative-log IC50 (pIC50) in test [1] of less than 5.00. Moreover, the IC50 in test [2] is > 10 µM (inactive).
The corresponding values for `CCOCCCNC(=O)c1cc2sc(Cl)cc2n1CC` are less than 5.00 and > 10 µM (inactive).
For `COCCNc1cc(C)nc2c3c(C)cc(C)nc3nn12` the same measures were less than 5.00 and > 10 µM (inactive).
